Laboratory results published in patent US20090226398A1, “ANTI-VIRAL COMPOUNDS, COMPOSITIONS, AND METHODS OF USE” (Genelabs Technologies, Inc., priority 2008, published 2009).

System: HCV replication
Test: Replicon Assay (Huh-lucubineo-ET cells, luciferase readout)
Assay type: cell-based
Conditions: Hepatitis C virus; ET (Huh-lucubineo-ET) HCV replicon cell line; luciferase activity 48-72 hours after compound addition; 6 dilutions
Outline: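 Huh-lucubineo-ET cells stably carrying a firefly luciferase-ubiquitin-neo/NS3-5B ET replicon (adaptive mutations E1202G, T1280I, K1846T) were plated 24 h before compound, then treated at 5 or 50 μM or six 3-fold dilutions. Luciferase read 48-72 h later; % inhibition vs no-compound control, EC50/TC50 from Hill-equation fit.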

Compared with `COc1ccc(-c2ccc(Cn3cc4nc(-c5cccc(F)c5F)nc-4cn3)nc2O)c(C(F)(F)F)c1` [Compound 359, 6-[2-(2,3-Difluoro-phenyl)-imidazo[4,5-d]pyridazin-5-ylmethyl]-3-(4-methoxy-2-trifluoromethyl-phenyl)-pyridin-2-ol], `Oc1nc(-c2ccc(C(F)(F)F)cc2C(F)(F)F)ccc1Cn1cc2nc(-c3cccc(F)c3F)nc-2cn1` [Compound 361, 6-(2,4-Bis-trifluoromethyl-phenyl)-3-[2-(2,3-difluoro-phenyl)-imidazo[4,5-d]pyridazin-5-ylmethyl]-pyridin-2-ol] is 6.1-fold higher in EC50: 2230 nM for the first, 13700 nM for the second.

Going from `Nc1nc(-c2ccc(C(F)(F)F)cc2C(F)(F)F)ccc1Cn1cc2nc(-c3cccc(F)c3F)nc-2cn1` [Compound 360, 6-(2,4-Bis-trifluoromethyl-phenyl)-3-[2-(2,3-difluoro-phenyl)-imidazo[4,5-d]pyridazin-5-ylmethyl]-pyridin-2-ylamine] to `Nc1ccc(-c2ccc(Cn3cc4nc(-c5cccc(F)c5F)nc-4cn3)cn2)c(C(F)(F)F)c1` [Compound 364, 4-{5-[2-(2,3-Difluoro-phenyl)-imidazo[4,5-d]pyridazin-5-ylmethyl]-pyridin-2-yl}-3-trifluoromethyl-phenylamine], the EC50 rises from 11 nM to ≥ 50000 nM.

First: CCCOc1ccc(-c2ncc(Cn3cc4nc(-c5ccccc5F)nc-4cn3)cn2)c(C(F)(F)F)c1 [Compound 362, 2-(2-Fluoro-phenyl)-5-[2-(4-propoxy-2-trifluoromethyl-phenyl)-pyrimidin-5-ylmethyl]-5H-imidazo[4,5-d]pyridazine]
Second: CCCOc1ccc(-c2ncc(Cn3cc4nc(-c5cccc(F)c5F)nc-4cn3)cn2)c(C(F)(F)F)c1 [Compound 363, 2-(2,3-Difluoro-phenyl)-5-[2-(4-propoxy-2-trifluoromethyl-phenyl)-pyrimidin-5-ylmethyl]-5H-imidazo[4,5-d]pyridazine]
The EC50 of the first is 3.8-fold higher: 19 nM for the first, 5 nM for the second. The second is the more potent here.

For `Cc1ccc(-c2ccc(Cn3cc4nc(-c5cccc(F)c5F)nc-4cn3)cn2)c(C(F)(F)F)c1` [Compound 376, 2-(2,3-Difluoro-phenyl)-5-[6-(4-methyl-2-trifluoromethyl-phenyl)-pyridin-3-ylmethyl]-5H-imidazo[4,5-d]pyridazine], the EC50 was 131 nM.
